Test results published in US20090099376A1, “TIGECYCLINE AND METHODS OF PREPARING INTERMEDIATES” (Wyeth, priority 2007, published 2009).
≈ marks a conversion by molar mass, not a printed value.

Tests used:
[1] = Solubility at RT in hydrogenation solvent mixtures doped with IPA; format: physicochemical
Excerpt: An investigation by examining the solubility characteristics of 9-nitrominocycline and 9-aminominocycline sulfate in the presence of various amounts of IPA to gauge whether the starting material and/or product could in fact precipitate out in the reaction solvent was initiated.

[2] = Dynamic vapor sorption (DVS) study; format: physicochemical; conditions: RH 90%
Excerpt: As a comparison, we ran the DVS on 9-nitrominocycline. This intermediate picks up to 40% by weight of water at RH 90%.

[3] = system: penicillin-resistant Streptococcus pneumoniae; conditions: cited from earlier work
[4] = system: organisms carrying either of the two major forms of tetracycline resistance: efflux and ribosomal protection; conditions: organisms with tetracycline resistance by efflux or ribosomal protection; cited from earlier work
[5] = system: vancomycin-resistant enterococci; conditions: cited from earlier work
[6] = system: methicillin-resistant Staphylococcus aureus; conditions: cited from earlier work
[7] = 80:20 water:methanol with 20% wt/wt IPA, aqueous with cosolvent or surfactant or cyclodextrin, Exp. 8: +20% wt/wt IPA, 80:20 water:methanol
[8] = 80:20 water:methanol with 35% wt/wt IPA, aqueous with cosolvent or surfactant or cyclodextrin, Exp. 9: +35% wt/wt IPA, 80:20 water:methanol
[9] = 80:20 water:methanol with 50% wt/wt IPA, aqueous with cosolvent or surfactant or cyclodextrin, Exp. 10: +50% wt/wt IPA, 80:20 water:methanol
[10] = v:v) with 0% wt/wt IPA, organic solvent or mixture, Exp. 1: MeOH:water (99:1, v:v) +0% wt/wt IPA
[11] = v:v) with 4% wt/wt IPA, organic solvent or mixture, Exp. 2: MeOH:water (99:1, v:v) +4% wt/wt IPA
[12] = v:v) with 20% wt/wt IPA, organic solvent or mixture, Exp. 3: MeOH:water (99:1, v:v) +20% wt/wt IPA
[13] = v:v) with 35% wt/wt IPA, organic solvent or mixture, Exp. 4: MeOH:water (99:1, v:v) +35% wt/wt IPA
[14] = v:v) with 50% wt/wt IPA, organic solvent or mixture, Exp. 5: MeOH:water (99:1, v:v) +50% wt/wt IPA

Solubility (in words) ([1]; 80:20 water:methanol)	solubility [1, 7] [mg/mL]	solubility [1, 8] [mg/mL]	solubility [1, 9] [mg/mL]	Solubility (in words) ([1]; 99:1 methanol:water)	Solubility at RT ([1]; Exp. 6: +0% wt/wt IPA, 80:20 water:methanol)	Solubility at RT ([1]; Exp. 7: +4% wt/wt IPA, 80:20 water:methanol)	solubility ([1]; organic solvent or mixture, Exp. 11: IPA Only) [mg/mL]	solubility [1, 10] [mg/mL]	solubility [1, 11] [mg/mL]	solubility [1, 12] [mg/mL]	solubility [1, 13] [mg/mL]	solubility [1, 14] [mg/mL]	solubility ([1]; 80:20 water:methanol with 0% wt/wt IPA, aqueous with cosolvent or surfactant or cyclodextrin, Exp. 6: +0% wt/wt IPA, 80:20 water:methanol) [mg/mL]	solubility ([1]; 80:20 water:methanol with 4% wt/wt IPA, aqueous with cosolvent or surfactant or cyclodextrin, Exp. 7: +4% wt/wt IPA, 80:20 water:methanol) [mg/mL]	Water uptake in DVS [2]	SMILES	Antibacterial activity [3]	Antibacterial activity [4]	Antibacterial activity [5]	Antibacterial activity [6]
high	243 (≈ 514 mM)	103 (≈ 218 mM)	58 (≈ 123 mM)	somewhat low	high	high	1 (≈ 2.12 mM)	14 (≈ 29.6 mM)	16 (≈ 33.9 mM)	12 (≈ 25.4 mM)	9 (≈ 19 mM)	7 (≈ 14.8 mM)				CN(C)c1cc(N)c(O)c2c1C[C@H]1C[C@H]3[C@H](N(C)C)C(O)=C(C(N)=O)C(=O)[C@@]3(O)C(O)=C1C2=O [9-aminominocycline]				
fairly high	> 453	> 303	333 (≈ 663 mM)					> 466	129 (≈ 257 mM)	68 (≈ 135 mM)	30 (≈ 59.7 mM)	23 (≈ 45.8 mM)	> 421	> 426	up to 40 % by weight	CN(C)c1cc([N+](=O)[O-])c(O)c2c1C[C@H]1C[C@H]3[C@H](N(C)C)C(O)=C(C(N)=O)C(=O)[C@@]3(O)C(O)=C1C2=O [9-nitrominocycline]				
																CN(C)c1cc(NC(=O)CNC(C)(C)C)c(O)c2c1C[C@H]1C[C@H]3[C@H](N(C)C)C(O)=C(C(N)=O)C(=O)[C@@]3(O)C(O)=C1C2=O [Tigecycline, (4S,4aS,5aR,12aS)-9-[2-(tert-butylamino)acetamido]-4,7-bis(dimethylamino)-1,4,4a,5,5a,6,11,12a-octahydro-3,10,12,12a-tetrahydroxy-1,11-dioxo-2-naphthacenecarboxamide]	active	active	active	active
